# Laboratory results published in PubChem BioAssay (NCI).
# “And” between values parts separate entries of the source, which are not always exact repeats. Identical values can stand only once.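 The compound was tested at five concentrations on cells cultured in 96-well plates, with a 48-hour exposure period. The concentration for 50% growth inhibition is given as GI50. Definition used: TGI = concentration required for complete inhibition of growth.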
# Tests used:
# Test in all cases: NCI anticancer screen, dose series, 48 h
# [1] = test system: UO-31 renal
# [2] = test system: SW-620 colon
# [3] = test system: MOLT-4 leukemia
# [4] = test system: A498 renal
# [5] = test system: HL-60(TB) leukemia
# [6] = test system: SF-295 CNS
# [7] = test system: HCC-2998 colon
# [8] = test system: CCRF-CEM leukemia
# [9] = test system: MCF7 breast
# [10] = test system: MDA-MB-435
Structure (SMILES),TGI [1],TGI [2],TGI [3] [µM],TGI [4] [µM],TGI [5],TGI [6],TGI [7] [µM],TGI [8] [µM],TGI [9] [µM],TGI [10] [µM],GI50 [1] [µM],GI50 [2] [µM],GI50 [3] [µM],GI50 [5] [µM],GI50 [6] [µM],GI50 [7] [µM],GI50 [9] [µM],GI50 [4] [µM],GI50 [10] [µM],GI50 [8] [µM]
CN(C(=O)C12C3C4C1C1C2C3C41C(N)=O)C(C)(C)C (stereo unspecified),> 100 µM,> 100 µM,> 100,> 100,> 100 µM,> 100 µM,> 100,> 100,,,,,,,,,,,,
COc1ccc2c(c1)C(=O)c1ccc(OC)cc1C2=S,> 100 µM,> 100 µM,> 100,> 100,> 100 µM,> 100 µM,> 100,> 100,,,,,,,,,,,,
O=C1NNC2(C(=O)N1)c1ccccc1-c1ccccc12,> 10 µM,> 10 µM,> 10,,> 10 µM,> 10 µM,> 10,> 10,> 10,> 10,,,,,,,,,,
O=C1CCCCC1S(=O)(=O)c1ccccc1 (stereo unspecified),> 100 µM,> 100 µM,> 100,> 100,> 100 µM,> 100 µM,> 100,> 100,,,,,,,,,,,,
C[C@@]12CCC(=O)c3coc(c31)C(=O)c1cc3c(cc12)C(=O)C=CC3=O,> 1 µM and 30.9 µM,> 1 µM and 35.7 µM,> 100,> 100,> 1 µM and 5.5 µM,> 1 µM and 31.1 µM,> 100,> 23.2,,,> 1,> 1,> 1,> 1,> 1,> 1,,,,
O=C1C(Nc2ccc(Cl)cc2)=C(I)C(=O)c2ncccc21,1.74 µM,2 µM,9.32,13.4,,19.6 µM,3.74,5.88,1.16,2.9,0.473,0.378,0.964,,6.79,1.77,0.289,2.53,1.43,0.784
O=S(=O)(/C=C/c1ccc(F)cc1)Cc1ccc(CS(=O)(=O)/C=C/c2ccc(F)cc2)cc1,> 100 µM,> 100 µM,> 100,,> 100 µM,> 100 µM,> 100,> 100,,,,,,,,,,,,
CCOC(C[C@H](O[Si](C)(C)C(C)(C)C)[C@H]1COC(=S)S1)OCC,> 100 µM,> 100 µM,> 100,,> 100 µM,> 100 µM,> 100,> 100,,,,,,,,,,,,
COc1ccc2c(CN3CCCC[C@H]3C(=O)O)cc3cc4c(cc3c2c1)OCO4,,1.79 µM,2.3,3.06,,3.53 µM,> 100,13.5,2.8,4.09,,0.37,0.278,,0.622,3.56,0.366,1.55,1.05,2.94
CCCCOC(=O)N1CCN(/[N+]([O-])=N/Oc2ccc([N+](=O)[O-])cc2[N+](=O)[O-])CC1,41.3 µM,> 100 µM,> 100,,> 100 µM,> 100 µM,,,8.57,16.4,3.84,3.38,> 100,6.85,28.6,,3.31,,4.6,
C=C1CC2OC(=O)C(=C)C2C(O)C2C(=C)CCC12 (stereo unspecified),29.7 µM,13.8 µM,11,17.5,6.32 µM,22.8 µM,22.2,10.2,,,,,,,,,,,,
Cc1ccc2c(c1)-c1c3c(nn1-c1ccccc1)-c1ccccc1SC3O2 (stereo unspecified),> 100 µM,> 100 µM,> 100,> 100,> 100 µM,> 100 µM,> 100,> 100,,,,,,,,,,,,
COC(C(=O)NN)c1ccccc1 (stereo unspecified),> 100 µM,> 100 µM,> 100,,,> 100 µM,> 100,,> 100,> 100,,,,,,,,,,
NC(=O)CN(CC(N)=O)C(N)=O,> 100 µM,> 100 µM,> 100,> 100,> 100 µM,> 100 µM,,> 100,,,,,,,,,,,,
O=C(c1ccc(Cl)cc1Cl)C1[C@H]2C(=O)N(c3ccc(Cc4ccc(N5C(=O)[C@@H]6ON(c7ccccc7)C(C(=O)c7ccc(Cl)cc7Cl)[C@@H]6C5=O)cc4)cc3)C(=O)[C@H]2ON1c1ccccc1 (stereo partly specified),> 50 µM,> 50 µM,> 50,> 50,> 50 µM,> 50 µM,> 50,> 50,,,,,,,,,,,,
CC1(C)CC(O)C(C)(C)[C@@H](O)C1 (stereo partly specified),> 100 µM,> 100 µM,> 100,,> 100 µM,> 100 µM,> 100,> 100,> 100,,,,,,,,,,,
N/N=C(/C(=O)Nc1cccc(Cl)c1)C(C(=O)c1ccc(O)cc1O)C1OC(=O)c2ccccc21 (stereo unspecified),> 100 µM,> 100 µM,> 100,> 100,> 100 µM,> 100 µM,> 100,> 100,,,,,,,,,,,,
Cc1c(C(=O)Nc2ccccc2)sc2ncn(Cc3cccc(Cl)c3)c(=O)c12,39.7 µM,> 100 µM,> 100,,> 100 µM,> 100 µM,67.8,97.3,> 100,> 100,13,53.3,51.8,16.3,32.4,4.67,10.6,,24.2,22.1
NNC(=O)C1CCC(=O)N1S(=O)(=O)c1ccccc1 (stereo unspecified),> 100 µM,> 100 µM,> 100,,> 100 µM,> 100 µM,> 100,> 100,,,,,,,,,,,,
CCOc1cc2c(C(=O)CC)c(O)ccc2o1,> 100 µM,> 100 µM,> 100,> 94.4,23 µM,> 100 µM,> 100,> 85.1,,,,,,,,,,,,
CC1CCC/C1=C(/I)C(=O)c1ccccc1 (stereo unspecified),> 100 µM,> 100 µM,45.2,,70.4 µM,> 100 µM,> 100,75.5,,82,,,,,,,,,,
OC1(C23CC4CC(CC(C4)C2)C3)CSCC1(O)C12CC3CC(CC(C3)C1)C2 (stereo unspecified),> 100 µM,> 100 µM,> 10,,> 10 µM,> 100 µM,> 100,> 10,,,,,,,,,,,,

Structure (SMILES),TGI [1],TGI [2],TGI [3] [µM],TGI [4] [µM],TGI [5],TGI [6],TGI [7] [µM],TGI [8] [µM],TGI [9] [µM],TGI [10] [µM],GI50 [1] [µM],GI50 [2] [µM],GI50 [3] [µM],GI50 [5] [µM],GI50 [6] [µM],GI50 [7] [µM],GI50 [9] [µM],GI50 [4] [µM],GI50 [10] [µM],GI50 [8] [µM]
Cc1cn(C2CC3C(COCN3O)O2)c(=O)[nH]c1=O (stereo unspecified),> 100 µM,> 100 µM,> 100,,> 100 µM,> 100 µM,> 100,> 100,,,,,,,,,,,,
CCOC(=O)CC[C@H](NC(=O)c1nc[nH]c1[N+](=O)[O-])C(=O)OCC,> 100 µM,,> 100,> 100,> 100 µM,> 100 µM,> 100,> 100,,,,,,,,,,,,
C[C@H](OCc1ccccc1)C(=O)N1CCS(=O)(=O)N2CCC[C@@H]2C1=O,> 100 µM,> 100 µM,> 100,> 100,> 100 µM,> 100 µM,> 100,> 100,,,,,,,,,,,,
C=Cc1cncc(C#N)c1CCc1c(C#N)cncc1C=C,> 100 µM,> 100 µM,> 100,> 100,> 100 µM,> 100 µM,> 100,> 100,,,> 100,> 100,> 100,> 100,> 100,> 100,,> 100,,> 100
COc1ccc(/C=C/c2cc(OC)c(OC)c(OC)c2)cc1,> 100 µM,> 100 µM,> 100,> 100,,61.3 µM,15.7,> 100,,,,,,,21.9,,,,,
CC1=NN(C(=O)c2ccccc2O)C(=O)/C1=C/c1ccc(O)cc1,,> 100 µM,> 100,,> 41.1 µM,> 100 µM,> 100,> 100,> 100,,,,,,,,,,,
Cc1nc(Nc2ccccc2)sc1C(=O)CC(=O)C(=O)Nc1c(C(C)C)cccc1C(C)C,> 100 µM,> 100 µM,> 100,,> 100 µM,> 100 µM,> 100,> 100,,,,,,,,,,,,
COc1cc(OC)c(C/C=C/c2ccccc2)cc1O,29.6 µM,38 µM,40.5,28.8,52.2 µM,,29.8,51.6,,30.7,,,,,,,,,,
CCCCCCCCCCCCCCCC(=O)OCC1OC(n2cc(F)c(=O)[nH]c2=O)C(N)C(O)C1O (stereo unspecified),30.8 µM,30.4 µM,40.7,61.3,37.4 µM,31.1 µM,27.8,31.7,,,,,,,,,,,,
O=C1C(c2ccccc2)=C(O)c2cccc3cccc1c23,> 100 µM,> 100 µM,> 100,> 100,> 100 µM,> 100 µM,> 100,> 100,,,,,,,,,,,,
CCOC(=O)/C(C1=NCCN1)=C(\O)c1ccccc1,> 100 µM,> 100 µM,> 100,,> 100 µM,> 100 µM,> 100,> 100,,,,,,,,,,,,
COc1cc2c[n+](C)c3c4cc(OC)c(OC(C)C)cc4ccc3c2cc1OC,> 100 µM,> 100 µM,> 100,,91.9 µM,> 100 µM,> 100,> 100,,,,,,,,,,,,
CC(CN(C)C)/C(=N\Nc1ccccc1)c1ccccc1 (stereo unspecified),3.28 µM,> 100 µM,14,> 100,8.34 µM,0.358 µM,,29.3,,,,,,,,,,,,
CCCCCCC[CH2][Sn]([CH2]CCCCCCC)([O]c1cccc2cccnc12)[O]c1cccc2cccnc12,5.42 µM,1.89 µM,3.81,5.85,,6.08 µM,3.43,3.25,,,2,0.391,0.595,,2.38,1.99,,2.62,,0.506
CC1(C)C2CCC13C(=O)C1OC3(C2)C2C(=O)c3ccccc3C(=O)C12 (stereo unspecified),> 100 µM,,> 100,,> 100 µM,,> 100,> 100,> 100,> 100,> 100,,> 100,> 100,,> 100,> 100,,> 100,97
O=C1NC(Nc2ccccc2)=NC(C(F)(F)F)(C(F)(F)F)N1,> 100 µM,> 100 µM,> 100,,> 100 µM,> 100 µM,> 100,> 100,> 100,> 100,,,,,,,,,,
COc1ccc(CCN2CC=Cn3c2nc2ccccc2c3=O)cc1,> 100 µM,> 100 µM,> 100,0.0851,0.0648 µM,> 100 µM,35.5,> 100,> 43,,0.0683,0.037,0.0523,< 0.0116,0.0269,0.0332,0.0307,0.0203,,0.03
CSc1nnc(CCC(=O)Nc2c(C)cccc2C)o1,> 100 µM,> 100 µM,> 100,> 100,> 100 µM,> 100 µM,> 100,> 100,,,,,,,,,,,,
CC(=O)Nc1ccc(S(=O)(=O)N/N=C/CN2C(=O)c3ccccc3C2=O)cc1,> 100 µM,> 100 µM,> 100,> 100,> 100 µM,> 100 µM,> 100,> 100,,,,,,,,,,,,
COc1cc2ccnc3c2c(c1OC)-c1coc(SC)c1-3,> 100 µM,> 100 µM,> 100,> 100,> 100 µM,> 100 µM,> 100,,,,,,,,,,,,,
C=C1C(O)C2C(=C(CC)C13CC3)C(=O)C(C)(C)C2OC (stereo unspecified),> 100 µM,> 100 µM,> 100,> 100,,> 100 µM,,> 100,> 100,> 100,81.5,59.9,27.3,,> 100,,42.4,> 100,> 100,27.5
C=C/C=C/NC(=O)OCc1ccccc1,> 100 µM,> 100 µM,> 100,,> 100 µM,> 100 µM,,> 100,,,,,,,,,,,,
